According to article PMC8294059, “Identification and Immune Assessment of T Cell Epitopes in Five Plasmodium falciparum Blood Stage Antigens to Facilitate Vaccine Candidate Selection and Optimization” (Frontiers in Immunology, 2021):
pIC50: −log10 of the molar value. Like-named read-outs stand apart in the source and are kept apart here. Where a SMILES comes first, the peptide text is derived from it.

Target: HLA-A*0101 (Homo sapiens, UniProt P04439, A114D/A174V/A182V/D101N/D185E/E176A/E190D/L180R/Q94H/R68K/S129P/T187R/V100A/V91M/W191G)
Assay: biochemical
Assay type: binding
Details: for IC50 / IC50 (nM), in vitro HLA binding affinity: fluorescence polarization competition; for IC50: read-out: IC50 (nM), in vitro HLA binding affinity
Experimental: A cell-free class I HLA binding assay that allows for in vitro quantification of peptide-HLA binding affinity in a competition format was used. In this assay, a fluorescently labeled, high binding, control peptide is loaded onto 384-well ½-area plates along with unlabeled experimental peptides. To remove endogenous peptides and render the HLA A and B molecules receptive to binding, HLA is heated at 53°C for 15 minutes and immediately added to the assay. The mixture is then allowed to stand for three days. Once the mixture has reached steady equilibrium (at 72 hours), displacement of the high binding control peptide is measured through fluorescence polarization. Binding of experimental peptides is expressed as the percent inhibition of the labeled control peptide (experimental fluorescence / control fluorescence, multiplied by 100). The percent inhibition values for each experimental peptide (across a range of molar concentrations) are used to calculate the concentration which inhibits 50% of the labeled control peptide’s specific binding. This value is referred to as the peptide’s IC50.

Row | Compound | IC50 (allele A*0101) | IC50 (nM), in vitro HLA binding affinity (allele A*0101) | other results
1 | C[C@@H](O)[C@H](NC(=O)[C@@H](N)CC(=O)O)C(=O)N[C@@H](CC(=O)O)C(=O)N[C@@H](CO)C(=O)N[C@@H](CC(N)=O)C(=O)N[C@@H](Cc1c[nH]cn1)C(=O)N[C@H](C(=O)N1CCC[C@H]1C(=O)N[C@@H](CO)C(=O)N[C@@H](CC(N)=O)C(=O)O)[C@@H](C)O [RH5_280] (H-DTDSNHTPSN-OH) |  |  | pIC50: 5.23
2 | CC[C@H](C)[C@H](NC(=O)CNC(=O)[C@H](CC(N)=O)NC(=O)[C@@H](NC(=O)[C@@H](N)CC(N)=O)[C@@H](C)O)C(=O)N[C@@H](CCCNC(=N)N)C(=O)N[C@@H](Cc1ccc(O)cc1)C(=O)N[C@@H](Cc1c[nH]cn1)C(=O)N[C@@H](Cc1ccc(O)cc1)C(=O)O [RH5_352] (H-NTNGIRYHY-OH) | 4380 nM |  | 
3 | CC[C@H](C)[C@H](NC(=O)[C@H](Cc1ccccc1)NC(=O)[C@H](CCCCN)NC(=O)[C@@H](NC(=O)[C@@H](NC(=O)[C@H](CC(=O)O)NC(=O)[C@@H](NC(=O)[C@@H](N)Cc1ccc(O)cc1)[C@@H](C)CC)[C@@H](C)O)[C@@H](C)CC)C(=O)N[C@@H](Cc1c[nH]cn1)C(=O)N[C@@H](CCCCN)C(=O)O [RH5_406] (H-YIDTIKFIHK-OH) | 1510 nM |  | 
4 | CC[C@H](C)[C@H](NC(=O)[C@@H]1CCCN1C(=O)[C@@H](NC(=O)[C@H](CC(=O)O)NC(=O)[C@H](CC(N)=O)NC(=O)[C@@H](N)Cc1ccccc1)C(C)C)C(=O)N[C@@H](CCCCN)C(=O)N[C@@H](CCSC)C(=O)N[C@@H](CCC(=O)O)C(=O)N[C@@H](Cc1ccc(O)cc1)C(=O)O [RH5_505] (H-FNDVPIKMEY-OH) | 498 nM |  | 
5 | CC(C)C[C@H](NC(=O)[C@H](Cc1ccc(O)cc1)NC(=O)[C@H](C)NC(=O)[C@H](Cc1ccc(O)cc1)NC(=O)[C@H](CC(=O)O)NC(=O)[C@H](CC(N)=O)NC(=O)[C@@H](N)CCC(=O)O)C(=O)N[C@@H](CC(N)=O)C(=O)N[C@@H](CCCCN)C(=O)N[C@@H](Cc1ccc(O)cc1)C(=O)O [RIPR_0059] (H-ENDYAYLNKY-OH) | 42200 nM |  | 
6 | DSCVPNTNEY [RIPR_0976] |  | Non-binder | 
7 | LSDTLQLHED [EBA175_0881] |  |  | IC50 (nM) (allele A*0101, cell-free competition, fluorescence polarization at 72 hours, Non-binder = no dose-dependent inhibition): Non-binder
8 | NLFEQLSCY [RH5_338] |  | Non-Binder | 
9 | STDPHTNSNN [RIPR_0545] |  | Non-binder | 
